Measured values taken from ChEMBL document CHEMBL1157614, “5-Cyclic amine-3-arylsulfonylindazoles as novel 5-HT6 receptor antagonists” (J Med Chem, 2010).
≈ marks a conversion by molar mass, not a printed value. Calls of active or inactive are those of the source. The rule behind the calls is not given here.

Assays:
[1] = target: T1, 5-hydroxytryptamine receptor 6 (Homo sapiens, UniProt P50406); test: Antagonist activity at human cloned 5HT6 receptor expressed in human HeLa cells assessed as intracellular cAMP formation by RIA; type: functional, cell-based
[2] = target: T2, 5-hydroxytryptamine receptor 2B (Homo sapiens, UniProt P41595); test: Agonist activity at human 5HT2B receptor expressed in CHO cells assessed as intracellular cAMP formation by RIA; type: functional, cell-based
[3] = target: T2, 5-hydroxytryptamine receptor 2B; test: Displacement of [3H]5HT from human 5HT2B receptor expressed in CHO cells by scintillation counting; type: cell-based
[4] = target: T2, 5-hydroxytryptamine receptor 2B; test: Antagonist activity at human 5HT2B receptor expressed in CHO cells assessed as intracellular cAMP formation by RIA; type: functional, cell-based
[5] = target: T1, 5-hydroxytryptamine receptor 6; test: Displacement of [3H]LSD from human 5HT6 receptor by scintillation counting
Rattus norvegicus [6] = test: Cognitive enhancing effect in Long-Evans rat assessed as improvement of recognition memory at 3 mg/kg, ip administered 1 hr prior to learning trial measured after 48 hrs during testing trial by novel object recognition test; type: functional, organism-based; parameters: dose 3 mg/kg
[7] = target: 5-hydroxytryptamine receptor 1B (Homo sapiens, UniProt P28222); test: Binding affinity to 5HT1B receptor
Rattus norvegicus [8] = test: Permeability across blood brain barrier in Long-Evans rat at 10 mg/kg, ip administered as single dose; type: ADME, organism-based; parameters: dose 10 mg/kg, route intraperitoneal; conditions: in vivo
D(2) dopamine receptor = D(2) dopamine receptor (Homo sapiens, UniProt P14416); test: Binding affinity to dopamine D2 receptor
CYP2D6 = CYP2D6 (Homo sapiens, UniProt P10635); test: Inhibition of CYP2D6 at 3 uM; type: ADME
[9] = Solubility at pH 7.4; type: physicochemical; conditions: buffer
[10] = Permeability at pH 7.4 by PAMPA; type: ADME; conditions: read-out: permeability
CYP3A4 = CYP3A4 (Homo sapiens, UniProt P08684); test: Inhibition of CYP3A4 at 3 uM; type: ADME
[11] = target: T3, Alpha-2A adrenergic receptor (Homo sapiens, UniProt P08913); test: Binding affinity to alpha2A adrenergic receptor
T3 sequence (P08913 whole entry): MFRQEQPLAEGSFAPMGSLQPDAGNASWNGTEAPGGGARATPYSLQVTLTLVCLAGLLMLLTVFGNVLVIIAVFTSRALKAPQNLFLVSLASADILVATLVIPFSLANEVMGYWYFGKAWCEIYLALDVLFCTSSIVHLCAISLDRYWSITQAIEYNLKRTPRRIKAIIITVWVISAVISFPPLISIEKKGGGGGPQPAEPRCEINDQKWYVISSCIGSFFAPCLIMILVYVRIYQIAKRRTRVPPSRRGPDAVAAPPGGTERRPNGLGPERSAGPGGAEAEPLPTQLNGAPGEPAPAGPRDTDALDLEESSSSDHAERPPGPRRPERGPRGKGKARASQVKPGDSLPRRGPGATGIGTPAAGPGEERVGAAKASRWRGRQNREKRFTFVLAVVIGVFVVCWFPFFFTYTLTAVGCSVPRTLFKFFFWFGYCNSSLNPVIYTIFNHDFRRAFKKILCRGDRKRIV

[12] = target: T4, 5-hydroxytryptamine receptor 1A (Homo sapiens, UniProt P08908); test: Binding affinity to 5HT1A receptor
T4 sequence (P08908 whole entry): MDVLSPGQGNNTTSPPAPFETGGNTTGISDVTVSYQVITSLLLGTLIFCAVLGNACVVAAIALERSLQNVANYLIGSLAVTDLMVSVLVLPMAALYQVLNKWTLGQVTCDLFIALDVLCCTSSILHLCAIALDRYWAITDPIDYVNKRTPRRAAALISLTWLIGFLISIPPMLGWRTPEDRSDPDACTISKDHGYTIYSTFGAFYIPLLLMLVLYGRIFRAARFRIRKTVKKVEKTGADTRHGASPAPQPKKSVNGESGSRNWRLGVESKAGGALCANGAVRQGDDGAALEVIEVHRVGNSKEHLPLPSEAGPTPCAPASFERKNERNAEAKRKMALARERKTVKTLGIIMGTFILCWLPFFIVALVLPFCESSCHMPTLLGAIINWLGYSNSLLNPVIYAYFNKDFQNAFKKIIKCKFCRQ

[13] = target: 5-hydroxytryptamine receptor 1D (Homo sapiens, UniProt P28221); test: Binding affinity to 5HT1D receptor
hERG (KCNH2) = hERG (KCNH2) (Homo sapiens, UniProt Q12809); test: Inhibition of human ERG at 10 uM
CYP2C9 = CYP2C9 (Homo sapiens, UniProt P11712); test: Inhibition of CYP2C9 at 3 uM; type: ADME
[14] = Half life in rat microsomes; type: ADME, Microsome

T2 sequence (P41595 whole entry): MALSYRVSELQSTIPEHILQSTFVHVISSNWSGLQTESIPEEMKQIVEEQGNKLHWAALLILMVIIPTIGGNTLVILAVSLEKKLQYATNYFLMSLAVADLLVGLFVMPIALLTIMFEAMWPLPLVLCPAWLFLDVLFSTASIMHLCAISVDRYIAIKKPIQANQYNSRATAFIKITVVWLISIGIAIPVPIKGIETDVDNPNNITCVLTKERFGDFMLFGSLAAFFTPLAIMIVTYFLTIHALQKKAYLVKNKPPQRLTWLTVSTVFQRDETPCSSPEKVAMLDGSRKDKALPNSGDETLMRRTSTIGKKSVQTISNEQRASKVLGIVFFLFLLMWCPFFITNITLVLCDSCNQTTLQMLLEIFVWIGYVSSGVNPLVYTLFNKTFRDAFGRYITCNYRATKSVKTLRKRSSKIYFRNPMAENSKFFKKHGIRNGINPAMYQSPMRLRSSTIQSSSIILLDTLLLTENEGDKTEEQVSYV
T1 sequence (P50406 whole entry): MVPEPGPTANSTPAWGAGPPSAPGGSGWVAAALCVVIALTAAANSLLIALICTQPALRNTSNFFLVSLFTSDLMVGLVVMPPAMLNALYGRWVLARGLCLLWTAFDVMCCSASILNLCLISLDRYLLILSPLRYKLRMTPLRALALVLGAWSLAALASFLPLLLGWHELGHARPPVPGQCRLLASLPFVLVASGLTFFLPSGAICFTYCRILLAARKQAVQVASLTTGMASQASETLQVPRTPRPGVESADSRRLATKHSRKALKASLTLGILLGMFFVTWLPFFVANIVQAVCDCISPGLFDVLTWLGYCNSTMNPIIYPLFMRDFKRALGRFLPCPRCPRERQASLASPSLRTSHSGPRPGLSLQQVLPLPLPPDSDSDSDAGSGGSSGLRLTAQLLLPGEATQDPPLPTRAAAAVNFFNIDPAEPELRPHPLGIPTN
5-hydroxytryptamine receptor 1D, sequence (P28221 whole entry): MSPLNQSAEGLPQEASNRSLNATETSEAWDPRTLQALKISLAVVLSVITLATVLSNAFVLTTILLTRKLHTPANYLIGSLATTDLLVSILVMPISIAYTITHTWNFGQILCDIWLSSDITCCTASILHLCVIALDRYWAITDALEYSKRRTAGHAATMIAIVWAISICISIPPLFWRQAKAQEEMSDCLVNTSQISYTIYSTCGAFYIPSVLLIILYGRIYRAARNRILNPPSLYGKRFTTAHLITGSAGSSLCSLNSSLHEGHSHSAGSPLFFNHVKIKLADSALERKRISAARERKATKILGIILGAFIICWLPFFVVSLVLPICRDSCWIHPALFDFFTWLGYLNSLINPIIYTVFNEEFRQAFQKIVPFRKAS
5-hydroxytryptamine receptor 1B, sequence (P28222 whole entry): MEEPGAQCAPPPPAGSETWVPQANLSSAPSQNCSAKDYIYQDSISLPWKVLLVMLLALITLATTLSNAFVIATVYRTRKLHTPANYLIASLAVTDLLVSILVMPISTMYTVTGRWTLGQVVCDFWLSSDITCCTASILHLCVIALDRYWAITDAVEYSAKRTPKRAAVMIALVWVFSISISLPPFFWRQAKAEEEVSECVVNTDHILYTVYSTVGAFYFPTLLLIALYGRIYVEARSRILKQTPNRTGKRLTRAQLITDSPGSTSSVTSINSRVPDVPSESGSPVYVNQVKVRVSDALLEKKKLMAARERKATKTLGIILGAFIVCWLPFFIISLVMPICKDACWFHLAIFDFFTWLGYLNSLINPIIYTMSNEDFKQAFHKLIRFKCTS
CYP3A4, sequence (P08684 whole entry): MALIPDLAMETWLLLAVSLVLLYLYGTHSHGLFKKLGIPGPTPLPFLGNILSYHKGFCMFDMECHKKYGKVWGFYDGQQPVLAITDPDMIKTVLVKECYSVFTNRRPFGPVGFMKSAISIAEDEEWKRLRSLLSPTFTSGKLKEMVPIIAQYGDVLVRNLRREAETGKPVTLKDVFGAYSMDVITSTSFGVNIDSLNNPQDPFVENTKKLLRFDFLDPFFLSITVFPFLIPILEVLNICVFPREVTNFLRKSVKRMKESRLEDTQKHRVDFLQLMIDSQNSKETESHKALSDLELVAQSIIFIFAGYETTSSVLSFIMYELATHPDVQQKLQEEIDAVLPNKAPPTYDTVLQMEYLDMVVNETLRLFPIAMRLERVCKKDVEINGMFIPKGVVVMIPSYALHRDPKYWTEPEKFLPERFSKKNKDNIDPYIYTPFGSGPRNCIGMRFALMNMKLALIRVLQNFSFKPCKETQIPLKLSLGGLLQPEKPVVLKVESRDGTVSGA
CYP2D6, sequence (P10635 whole entry): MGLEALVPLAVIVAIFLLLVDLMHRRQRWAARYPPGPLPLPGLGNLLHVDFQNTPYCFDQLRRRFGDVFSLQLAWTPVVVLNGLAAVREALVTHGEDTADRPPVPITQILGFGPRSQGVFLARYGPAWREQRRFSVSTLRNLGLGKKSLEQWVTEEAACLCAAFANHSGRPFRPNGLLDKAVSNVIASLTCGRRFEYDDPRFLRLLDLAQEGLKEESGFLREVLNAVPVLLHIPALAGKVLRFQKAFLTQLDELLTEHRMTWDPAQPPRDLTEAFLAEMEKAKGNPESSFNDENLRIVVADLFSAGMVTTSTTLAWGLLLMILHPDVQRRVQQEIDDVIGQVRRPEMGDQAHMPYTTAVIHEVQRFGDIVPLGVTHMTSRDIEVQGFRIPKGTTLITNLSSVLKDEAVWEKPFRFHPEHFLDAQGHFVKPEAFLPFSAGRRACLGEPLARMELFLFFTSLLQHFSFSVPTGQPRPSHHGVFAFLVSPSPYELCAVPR
hERG (KCNH2), sequence (Q12809 whole entry): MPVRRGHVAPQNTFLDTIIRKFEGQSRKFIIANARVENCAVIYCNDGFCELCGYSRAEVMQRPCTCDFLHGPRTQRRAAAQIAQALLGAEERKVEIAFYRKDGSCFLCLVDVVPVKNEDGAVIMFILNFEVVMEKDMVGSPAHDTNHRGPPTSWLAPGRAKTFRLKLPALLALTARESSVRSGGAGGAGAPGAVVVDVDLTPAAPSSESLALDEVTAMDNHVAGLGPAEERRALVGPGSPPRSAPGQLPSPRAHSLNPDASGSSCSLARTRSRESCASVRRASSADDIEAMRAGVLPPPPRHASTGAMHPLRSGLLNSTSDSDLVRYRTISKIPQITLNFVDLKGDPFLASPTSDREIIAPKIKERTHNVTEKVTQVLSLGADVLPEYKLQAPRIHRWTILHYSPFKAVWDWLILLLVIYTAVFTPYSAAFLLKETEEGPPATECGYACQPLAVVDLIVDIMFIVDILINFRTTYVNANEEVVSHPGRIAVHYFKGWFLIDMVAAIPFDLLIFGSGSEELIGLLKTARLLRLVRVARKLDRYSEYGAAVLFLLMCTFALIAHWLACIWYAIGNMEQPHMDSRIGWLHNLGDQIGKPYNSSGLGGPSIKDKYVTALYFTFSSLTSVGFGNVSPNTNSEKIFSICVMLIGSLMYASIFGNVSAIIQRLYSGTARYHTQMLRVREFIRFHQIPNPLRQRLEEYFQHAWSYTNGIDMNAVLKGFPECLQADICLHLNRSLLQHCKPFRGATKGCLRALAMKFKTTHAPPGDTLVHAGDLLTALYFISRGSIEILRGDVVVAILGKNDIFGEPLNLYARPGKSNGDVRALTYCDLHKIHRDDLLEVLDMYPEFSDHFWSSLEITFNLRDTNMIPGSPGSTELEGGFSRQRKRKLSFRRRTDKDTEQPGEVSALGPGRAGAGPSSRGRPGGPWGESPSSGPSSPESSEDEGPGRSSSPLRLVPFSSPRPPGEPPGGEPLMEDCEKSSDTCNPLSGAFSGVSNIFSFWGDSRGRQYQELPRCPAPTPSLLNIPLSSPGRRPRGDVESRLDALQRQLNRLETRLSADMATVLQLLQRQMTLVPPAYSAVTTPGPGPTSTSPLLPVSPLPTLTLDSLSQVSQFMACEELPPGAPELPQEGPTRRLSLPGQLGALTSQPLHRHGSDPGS
CYP2C9, sequence (P11712 whole entry): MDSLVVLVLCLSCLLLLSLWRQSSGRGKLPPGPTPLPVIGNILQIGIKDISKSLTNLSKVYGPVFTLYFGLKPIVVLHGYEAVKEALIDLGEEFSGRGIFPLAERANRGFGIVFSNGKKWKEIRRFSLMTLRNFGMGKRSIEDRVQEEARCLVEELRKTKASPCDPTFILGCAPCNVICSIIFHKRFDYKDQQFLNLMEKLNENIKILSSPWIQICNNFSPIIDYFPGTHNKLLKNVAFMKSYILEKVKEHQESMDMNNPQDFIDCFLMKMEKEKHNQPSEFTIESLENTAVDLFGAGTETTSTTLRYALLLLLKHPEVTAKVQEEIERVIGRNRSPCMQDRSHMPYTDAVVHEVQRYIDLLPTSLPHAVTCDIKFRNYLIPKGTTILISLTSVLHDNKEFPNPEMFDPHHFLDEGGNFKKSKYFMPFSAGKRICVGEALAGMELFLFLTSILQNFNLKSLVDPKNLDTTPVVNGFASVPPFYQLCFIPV
D(2) dopamine receptor, sequence (P14416 whole entry): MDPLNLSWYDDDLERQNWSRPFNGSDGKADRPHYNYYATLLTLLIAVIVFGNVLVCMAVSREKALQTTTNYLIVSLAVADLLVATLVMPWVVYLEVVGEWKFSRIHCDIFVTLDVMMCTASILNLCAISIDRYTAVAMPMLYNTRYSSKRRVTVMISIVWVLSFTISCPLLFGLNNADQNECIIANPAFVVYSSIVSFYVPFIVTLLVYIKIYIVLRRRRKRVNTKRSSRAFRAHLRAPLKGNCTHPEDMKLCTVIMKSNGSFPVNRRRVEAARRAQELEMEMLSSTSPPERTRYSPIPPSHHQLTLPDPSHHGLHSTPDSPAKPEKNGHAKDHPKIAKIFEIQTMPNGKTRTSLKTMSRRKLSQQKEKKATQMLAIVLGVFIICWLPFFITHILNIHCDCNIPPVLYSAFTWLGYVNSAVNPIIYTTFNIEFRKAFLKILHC

| SMILES | IC50 [1] [nM] | Activity [2] | Ki [3] [nM] | Activity [4] | Ki [5] [nM] | other results |
| --- | --- | --- | --- | --- | --- | --- |
| NC1CCN(c2ccc3[nH]nc(S(=O)(=O)c4ccc5ccccc5c4)c3c2)CC1 | 88.9 | inactive | 1360 | Active | 18.2 | – |
| CC(C)Cn1nc2ccc(N3CC[C@@H](N)C3)cc2c1S(=O)(=O)c1cccc2ccccc12 | 433 | inactive | 260 | Active | 75.8 | – |
| N[C@H]1CCN(c2ccc3[nH]nc(S(=O)(=O)c4cccc5ccccc45)c3c2)C1 | – | inactive | 21 | Active | – | – |
| CC(C)n1nc(S(=O)(=O)c2cccc3ccccc23)c2cc(N3CC[C@@H](N)C3)ccc21 | 157 | inactive | 191 | Active | – | Activity (Rattus norvegicus [6]): Active |
| Cn1nc(S(=O)(=O)c2cccc3ccccc23)c2cc(N3CC[C@@H](N)C3)ccc21 | 316 | inactive | 185 | Active | – | – |
| Cc1ccc(S(=O)(=O)c2n[nH]c3ccc(N4CCC(N)CC4)cc23)c2ccccc12 | 26.7 | inactive | 493 | Active | 3.62 | – |
| NC1CCN(c2ccc3[nH]nc(S(=O)(=O)c4cccc(Cl)c4)c3c2)CC1 | 33.7 | inactive | 442 | Active | – | – |
| N[C@@H]1CCN(c2ccc3[nH]nc(S(=O)(=O)c4cccc5ccccc45)c3c2)C1 | – | inactive | 274 | Active | – | Ki [7]: 6040 nM; pBBB (Rattus norvegicus [8]): 11 ×10⁻⁶ cm/s; Ki (D(2) dopamine receptor): 2910 nM; inhibition at 3 µM (CYP2D6): 7%; solubility [9]: 63 µg/mL (≈ 161 µM); Papp [10]: 0.19 ×10⁻⁶ cm/s; inhibition at 3 µM (CYP3A4): 88%; Ki [11]: > 10000 nM; Ki [12]: 4730 nM; Ki [13]: 2270 nM; inhibition at 10 µM (hERG (KCNH2)): 14%; inhibition at 3 µM (CYP2C9): 73%; half-life [14]: 20 min |
| CC(C)c1ccc(S(=O)(=O)c2n[nH]c3ccc(N4CCC(N)CC4)cc23)cc1 | 51.7 | inactive | > 10000 | Active | 13.1 | – |
| CN(C)[C@H]1CCN(c2ccc3[nH]nc(S(=O)(=O)c4cccc5ccccc45)c3c2)C1 | 17.5 | inactive | 583 | Active | 24.4 | – |
| Cn1nc2ccc(N3CC[C@@H](N)C3)cc2c1S(=O)(=O)c1cccc2ccccc12 | 444 | inactive | 455 | Active | 54.3 | – |
| CC(C)n1nc2ccc(N3CC[C@@H](N)C3)cc2c1S(=O)(=O)c1cccc2ccccc12 | 380 | inactive | > 3300 | Active | 48.7 | – |
| CC(C)Cn1nc(S(=O)(=O)c2cccc3ccccc23)c2cc(N3CC[C@@H](N)C3)ccc21 | 203 | inactive | > 3300 | Active | – | – |
| NC1CCN(c2ccc3[nH]nc(S(=O)(=O)c4cccc5ccccc45)c3c2)CC1 | – | inactive | 100 | Active | – | – |
| CN(C)[C@@H]1CCN(c2ccc3[nH]nc(S(=O)(=O)c4cccc5ccccc45)c3c2)C1 | 39.6 | inactive | 423 | Active | 0.51 | – |
| NC1CCN(c2ccc3[nH]nc(S(=O)(=O)c4cccc5c(Cl)cccc45)c3c2)CC1 | 70.1 | inactive | 78 | Active | 4.52 | – |
| NC1CN(c2ccc3[nH]nc(S(=O)(=O)c4cccc5ccccc45)c3c2)C1 | 16.5 | inactive | 97.9 | Active | 3.55 | – |
